What all share (assay): inhibition of tumour cell growth, NCI panel, 48 h
The subject of experiment [1] is HOP-62.
Experiment [2] concerns OVCAR-8.
For experiment [3], the system named is SF-295.
In experiment [4] the test system is OVCAR-5.
Experiment [5] has as its system SF-268.
The subject of experiment [6] is IGROV-1.
The subject of experiment [7] is M14.
Experiment [8] relates to SF-539.
In experiment [9] the test system is OVCAR-4.
Experiment [10] has as its system A498.
Experiment [11] has as its system SN12C.
For experiment [12], the system named is OVCAR-3.
For experiment [13], the system named is HCT-15.
Experiment [14] has as its system ACHN.
For experiment [15], the system named is LOX IMVI.
Experiment [16] has as its system SR.
Experiment [17] deals with HT-29.
For experiment [18], the system named is UACC-257.
Experiment [19] deals with UO-31.

Each structure is given as a SMILES string.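 In this assay, cells in 96-well plates receive the compound at five concentrations for 48 hours. Endpoints are linearly interpolated between the surrounding concentrations. GI50 marks 50% less growth.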 Active and inactive are the calls of the source. No stated cut-off is given here; in the data, active = GI50 up to about 1.1 µM and inactive = higher.

Take `Cc1cc(O)c2c(=O)c3ccccc3[nH]c2c1`: the GI50 in [1] is 23.2 µM (inactive); in [2], 23 µM (inactive); in [3] it was 20 µM (inactive); in experiment [4] it was 18.9 µM (inactive); in experiment [5] it was 26.8 µM (inactive); in [6], 13.3 µM (inactive). Also, the GI50 in [7] was 18.1 µM (inactive); in [8], 15.7 µM (inactive); in experiment [9], 15.1 µM (inactive); in [10] it was 32.8 µM (inactive); in experiment [11], 32.5 µM (inactive); in [12], 29 µM (inactive). Besides, the GI50 is 11.4 µM in experiment [13]; 21.5 µM (inactive) in experiment [14]; 18.8 µM (inactive) in experiment [15]; 16 µM (inactive) in [16]; 8.63 µM (inactive) in experiment [17]; 20.1 µM (inactive) in experiment [18].
On to `COc1ccc(/C=C/c2ccnc3ccccc23)cc1`, for which the GI50 was 20.5 µM (inactive) in [1]; 16.9 µM (inactive) in experiment [3]; 21.4 µM (inactive) in experiment [4]; 15.2 µM (inactive) in experiment [5]; 17.3 µM (inactive) in experiment [6]; 17.3 µM (inactive) in experiment [7]. Moreover, the GI50 is 21.8 µM (inactive) in experiment [8]; 3.03 µM (inactive) in experiment [9]; 14.1 µM (inactive) in [10]; 18.6 µM (inactive) in experiment [11]; 0.021 µM (active) in [19]; 13.4 µM (inactive) in experiment [12]. In addition, the GI50 in [13] is 18.1 µM; in experiment [14], 13.9 µM (inactive); in experiment [15], 16.5 µM (inactive); in experiment [16], 29.3 µM (inactive); in experiment [17] it was 10.4 µM (inactive); in experiment [18] it was 15.3 µM (inactive).
On to `C=CCC1(O)c2cccc(O)c2C(=O)c2cccc(O)c21` (stereo not given), for which the GI50 in experiment [1] was 21.4 µM (inactive); in experiment [2], 25.8 µM (inactive); in [3] it was 9.35 µM (inactive); in experiment [4], 22.5 µM (inactive); in experiment [5] it was 23.3 µM (inactive); in [6], 23.6 µM (inactive). Moreover, the GI50 is 16.2 µM (inactive) in experiment [7]; 31.8 µM (inactive) in [8]; 29.2 µM (inactive) in experiment [9]; 13.3 µM (inactive) in experiment [10]; 15.4 µM (inactive) in [19]; 12.3 µM (inactive) in experiment [12]. The GI50 was 12.2 µM in experiment [13]; 22.8 µM (inactive) in experiment [14]; 16.3 µM (inactive) in experiment [15]; 6.41 µM (inactive) in experiment [16]; 22.1 µM (inactive) in [17]; 13 µM (inactive) in experiment [18].
For `NC(=O)/C=c1/c2ccccc2n2nc3ccccc3c12`, the GI50 is 26.1 µM (inactive) in [1]; 8.71 µM (inactive) in experiment [2]; 31.1 µM (inactive) in [3]; 29.9 µM (inactive) in [4]; 10.2 µM (inactive) in experiment [5]; 10.6 µM (inactive) in experiment [6]. Moreover, the GI50 in [7] was 27.5 µM (inactive); in experiment [8] it was 13.3 µM (inactive); in experiment [9], 10.3 µM (inactive); in [10] it was 32.1 µM (inactive); in experiment [11] it was 19.1 µM (inactive); in experiment [19] it was 19.2 µM (inactive). Moreover, the GI50 in experiment [12] is 15.7 µM (inactive); in experiment [13], 12.2 µM; in experiment [14] it was 13.6 µM (inactive); in [15], 4.78 µM (inactive); in experiment [16], 2.68 µM (inactive); in experiment [17], 15.9 µM (inactive). In [18], the GI50 is 20.3 µM (inactive).
As to `COC(=O)[C@@H]1CN(C(=O)Cc2ccccc2)C(=O)N1`, the GI50 in experiment [1], in [2], in [3], in [4], in experiment [5] and in experiment [6] was > 100 µM (inactive) throughout. The GI50 in experiment [7], in [8], in experiment [9], in experiment [10], in experiment [11] and in experiment [19] was > 100 µM (inactive) throughout. Also, the GI50 in experiment [12], in experiment [14], in experiment [15], in experiment [16], in experiment [17] and in experiment [18] was > 100 µM (inactive) throughout.
For `O=C(CSc1nc2ccccc2c(=O)n1-c1ccccc1)N/N=C1\C(=O)Nc2ccc(F)cc21`, the GI50 was 2.09 µM (inactive) in experiment [1]; 1.87 µM (inactive) in [3]; 2.04 µM (inactive) in experiment [4]; 2.25 µM (inactive) in [5]; 1.9 µM (inactive) in experiment [7]; 3.14 µM (inactive) in experiment [8]. Moreover, the GI50 in experiment [9] was 1.82 µM (inactive); in experiment [10] it was 1.85 µM (inactive); in experiment [11] it was 1.97 µM (inactive); in experiment [19], 2 µM (inactive); in experiment [12], 1.91 µM (inactive); in experiment [13], 2 µM. Further, the GI50 in experiment [14] was 1.91 µM (inactive); in [15] it was 4.31 µM (inactive); in experiment [16], 1.53 µM (inactive); in [17], 3.06 µM (inactive); in experiment [18], 2.47 µM (inactive).
For the compound `C[C@H]1C2Cc3cc(O)ccc3[C@@]1(C)CCN2CCc1ccc(N)cc1`, the GI50 in experiment [1] was 8.69 µM (inactive); in experiment [2], 7.98 µM (inactive); in experiment [3], 18.6 µM (inactive); in [4] it was > 100 µM (inactive); in experiment [5], 19.6 µM (inactive); in experiment [6], 13.6 µM (inactive). Moreover, the GI50 in experiment [7] was 18.4 µM (inactive); in experiment [8], 16.7 µM (inactive); in experiment [9] it was 55.6 µM (inactive); in experiment [10], > 100 µM (inactive); in experiment [11], 98.9 µM (inactive); in [19], 37.2 µM (inactive). Besides, the GI50 in [12] is 14.2 µM (inactive); in [13], 18.2 µM; in experiment [14], 58.1 µM (inactive); in [15], 14.1 µM (inactive); in experiment [16] it was 21.6 µM (inactive); in experiment [17] it was 15.5 µM (inactive). Moreover, the GI50 in experiment [18] is 18.6 µM (inactive).
Turning to `CSCCCNC(=O)c1csc(-c2csc(C(CNC(=O)OC(C)(C)C)CNC(=O)OC(C)(C)C)n2)n1`, the GI50 in [1] was 33.7 µM (inactive); in experiment [2] it was 33.9 µM (inactive); in [3] it was 38.6 µM (inactive); in experiment [4] it was 67 µM (inactive); in experiment [5] it was 76.2 µM (inactive); in experiment [6], 33.3 µM (inactive). Besides, the GI50 is 47 µM (inactive) in experiment [7]; 45 µM (inactive) in experiment [8]; 26.9 µM (inactive) in experiment [9]; 55.2 µM (inactive) in experiment [10]; 61.8 µM (inactive) in experiment [11]; 31.8 µM (inactive) in experiment [19]. Further, the GI50 in experiment [12] was 60 µM (inactive); in [13], 43.4 µM; in experiment [14] it was 30.9 µM (inactive); in experiment [15], 39.8 µM (inactive); in experiment [16] it was 24.4 µM (inactive); in [18], 40.6 µM (inactive).
For the compound `C/C(=N\NC(N)=S)c1nc2cccnc2[nH]1`, the GI50 in [1] is 67.3 µM (inactive); in [2], > 67 µM (inactive); in [3], 84.9 µM (inactive); in experiment [4], 47.1 µM (inactive); in [5], 57.7 µM (inactive); in experiment [6], 82 µM (inactive). Further, the GI50 in experiment [7] was 63.1 µM (inactive); in experiment [8] it was 58.9 µM (inactive); in experiment [9], 25.6 µM (inactive); in [10], > 100 µM (inactive); in experiment [11] it was > 100 µM (inactive); in experiment [19] it was 24.9 µM (inactive). Also, the GI50 in experiment [12] is 31.8 µM (inactive); in [13], 53.6 µM; in experiment [14], 43 µM (inactive); in experiment [15], 73.5 µM (inactive); in experiment [16], 45.5 µM (inactive); in [17], 41.3 µM (inactive). Further, the GI50 in experiment [18] was > 88.5 µM (inactive).
For `COc1cc2c(cc1OCCCN1CCN(C)CC1)N=C[C@@H]1CCCN1C2=O`, the GI50 was 3.44 µM (inactive) in experiment [1]; 2.58 µM (inactive) in [2]; 2 µM (inactive) in experiment [3]; 2.27 µM (inactive) in [4]; 3.03 µM (inactive) in experiment [5]; 1.86 µM (inactive) in experiment [7]. Further, the GI50 was 2.19 µM (inactive) in experiment [8]; 2.15 µM (inactive) in experiment [9]; 2.34 µM (inactive) in experiment [10]; 3.57 µM (inactive) in experiment [11]; 2.14 µM (inactive) in experiment [19]; 2.06 µM (inactive) in [12]. For the same compound, the GI50 is 2.25 µM in [13]; 2.17 µM (inactive) in experiment [14]; 1.49 µM (inactive) in [15]; 0.0887 µM (active) in [16]; 1.74 µM (inactive) in [17]; 2.5 µM (inactive) in experiment [18].
For the compound `COc1ccc(-c2cc(=O)c3c(O)cc(O)cc3o2)cc1OC`, the GI50 in experiment [1] is 24 µM (inactive); in experiment [3], 44.8 µM (inactive); in [4] it was > 100 µM (inactive); in experiment [5], 28.4 µM (inactive); in [6], 92 µM (inactive); in [7], > 100 µM (inactive). For the same compound, the GI50 in [8] is 18.4 µM (inactive); in experiment [9], > 100 µM (inactive); in experiment [10], 4.57 µM (inactive); in experiment [11], 59.6 µM (inactive); in experiment [19], 36.7 µM (inactive); in experiment [12], 46 µM (inactive). For the same compound, the GI50 in experiment [13] was over 100 µM; in experiment [14] it was 35.5 µM (inactive); in experiment [15], 61.8 µM (inactive); in [16], 9.2 µM (inactive); in experiment [17], 81.8 µM (inactive); in [18], > 100 µM (inactive).

The values are drawn from ChEMBL document CHEMBL1201862, “PubChem BioAssay data set” (2004).
